This is an account of results in the NIST ThermoML archive (doi:10.1016/j.tca.2011.02.002).

For series [1] the following is noted: 101 kPa, Liquid; for mass density: Vibrating tube method.
Series [2] can be described thus: xn = mol fraction of the nth substance listed. Particulars: 101 kPa, Liquid, x1 = 1; for mass density: Vibrating tube method.

± gives the expanded uncertainty stated by the source.

In the case of `Cc1ccccn1` [2-methylpyridine], the speed of sound (commonly the propagation velocity of pressure waves in the medium) in series [1] (298.15 K) came to 1380.1 ± 2 m/s; in series [1] (303.15 K), 1361 ± 2 m/s; in series [1] (308.15 K), 1339.9 ± 2 m/s. In addition, the mass density (commonly the mass of a sample divided by its volume) in series [1] (298.15 K) is given as 939.802 ± 0.99 kg/m3; in series [1] (303.15 K) it was 935.117 ± 0.98 kg/m3; in series [1] (308.15 K) it was 930.414 ± 0.98 kg/m3.
For `Cc1cccnc1` [3-methylpyridine], the speed of sound in series [1] (298.15 K) is listed as 1424 ± 2 m/s; in series [1] (303.15 K), 1404 ± 2 m/s; in series [1] (308.15 K), 1384 ± 2 m/s. Besides, the values for the mass density in series [1] (298.15 K), in series [1] (303.15 K) and in series [1] (308.15 K) were 952.002 ± 1 kg/m3, 947.449 ± 1 kg/m3 and 942.831 ± 0.99 kg/m3, respectively.
For `Cc1ccncc1` [4-methylpyridine], the figures for the speed of sound in series [1] (298.15 K), in series [1] (303.15 K) and in series [1] (308.15 K) were 1431.5 ± 1 m/s, 1410.7 ± 1 m/s and 1389.9 ± 1 m/s, respectively. Besides, the mass density in series [1] (298.15 K) was determined as 950.179 ± 0.3 kg/m3; in series [1] (303.15 K), 945.413 ± 0.3 kg/m3; in series [1] (308.15 K), 940.821 ± 0.3 kg/m3.
As for `c1ccncc1` [pyridine], the speed of sound in series [1] (298.15 K) was 1417.6 ± 1.1 m/s; in series [1] (303.15 K), 1397.4 ± 1.1 m/s; in series [1] (308.15 K), 1377.1 ± 1.1 m/s. The mass density amounted to 978.249 ± 0.3 kg/m3 in series [1] (298.15 K), 973.224 ± 0.3 kg/m3 in series [1] (303.15 K) and 968.166 ± 0.3 kg/m3 in series [1] (308.15 K).
Turning to `C1CCOCC1` [tetrahydropyran], the values for the speed of sound in series [1] (298.15 K), in series [1] (303.15 K) and in series [1] (308.15 K) were 1269.9 ± 2 m/s, 1246.8 ± 2 m/s and 1224.5 ± 2 m/s, respectively. Further, the mass density in series [1] (298.15 K) is recorded as 879.136 ± 0.91 kg/m3; in series [1] (303.15 K), 873.992 ± 0.9 kg/m3; in series [1] (308.15 K), 868.831 ± 0.89 kg/m3.
For the compound `C1CCOCC1` [tetrahydropyran] + Cc1ccccn1, the values for the mass density in series [2] (298.15 K), in series [2] (303.15 K) and in series [2] (308.15 K) were 879.136 ± 0.91 kg/m3, 873.992 ± 0.9 kg/m3 and 868.831 ± 0.89 kg/m3, respectively. For the same compound, the values for the speed of sound in series [2] (298.15 K), in series [2] (303.15 K) and in series [2] (308.15 K) were 1269.9 ± 2 m/s, 1246.8 ± 2 m/s and 1224.5 ± 2 m/s, respectively.
As to `C1CCOCC1` [tetrahydropyran] + Cc1cccnc1, the results for the mass density in series [2] (298.15 K), in series [2] (303.15 K) and in series [2] (308.15 K) were 879.136 ± 0.91 kg/m3, 873.992 ± 0.9 kg/m3 and 868.831 ± 0.89 kg/m3, respectively. The speed of sound is 1269.9 ± 2 m/s in series [2] (298.15 K), 1246.8 ± 2 m/s in series [2] (303.15 K) and 1224.5 ± 2 m/s in series [2] (308.15 K).
Regarding `C1CCOCC1` [tetrahydropyran] + Cc1ccncc1, the mass density is on record as 879.136 ± 0.91 kg/m3 in series [2] (298.15 K), 873.992 ± 0.9 kg/m3 in series [2] (303.15 K) and 868.831 ± 0.89 kg/m3 in series [2] (308.15 K). Moreover, the results for the speed of sound in series [2] (298.15 K), in series [2] (303.15 K) and in series [2] (308.15 K) were 1269.9 ± 2 m/s, 1246.8 ± 2 m/s and 1224.5 ± 2 m/s, respectively.
On to `C1CCOCC1` [tetrahydropyran] + c1ccncc1, for which the figures for the mass density in series [2] (298.15 K), in series [2] (303.15 K) and in series [2] (308.15 K) were 879.136 ± 0.91 kg/m3, 873.992 ± 0.9 kg/m3 and 868.831 ± 0.89 kg/m3, respectively. Further, the speed of sound in series [2] (298.15 K) came to 1269.9 ± 2 m/s; in series [2] (303.15 K) it was 1246.8 ± 2 m/s; in series [2] (308.15 K) it was 1224.5 ± 2 m/s.
